Where two headings read alike, the source gives them in different places.
Assay: Biodistribution of SLS MDI formulation: drug concentrations in lung and blood (Table 5)
Type: in vivo, male Sprague-Dawley rats
Settings: rats
Method: A SLS (sodium lauryl sulfate) MDI formulation was tested in the following biodistribution study. One group of 13 male Sprague-Dawley rats, weighing 400 to 500 grams was used. This group of animals was dosed with a sodium lauryl sulfate-based R(+)-N-[3-[5-(4-fluorophenoxy)-2-furanyl]-1-methyl-2-propynyl]-N-hydroxyurea MDI formulation. Blood samples were collected at 0.083, 0.25, 0.5, 1, 2, 4 and 6 hours after dosing. One animal in each group was sacrificed at 0.25, 0.5, 1, 2, 4 and 6 hours after dosing for the determination of drug concentrations in the lung.

- reproducibility of delivery (MDI formulations in HFA-134a): reproducibly delivered
- fraction of theoretically delivered drug (lung) (SLS MDI, lung, time 0 hr, footnote c): 26.7%
- drug concentration recovered from the lung following delivery (SLS-based MDI): about 67 μg/g
- concentration at 0.083 h (rat, blood, inhaled or intranasal, SLS MDI 10 mg/mL drug, 0.3% SLS in HFA134a, 0.083 hr (n = 12)): 110 ± 80 ng/mL
- concentration at 0.25 h (rat, blood, inhaled or intranasal, SLS MDI 10 mg/mL drug, 0.3% SLS in HFA134a, 0.25 hr (n = 12), read-out: Concentrations of Drug, Blood): 140 ± 70 ng/mL
- concentration at 0.5 h (rat, blood, inhaled or intranasal, SLS MDI 10 mg/mL drug, 0.3% SLS in HFA134a, 0.5 hr (n = 9), read-out: Concentrations of Drug, Blood): 180 ± 80 ng/mL
- concentration at 1 h (rat, blood, inhaled or intranasal, SLS MDI 10 mg/mL drug, 0.3% SLS in HFA134a, 1.0 hr (n = 8), read-out: Concentrations of Drug, Blood): 180 ± 60 ng/mL
- concentration at 2 h (rat, blood, inhaled or intranasal, SLS MDI 10 mg/mL drug, 0.3% SLS in HFA134a, 2.0 hr (n = 6), read-out: Concentrations of Drug, Blood): 150 ± 60 ng/mL
- concentration at 4 h (rat, blood, inhaled or intranasal, SLS MDI 10 mg/mL drug, 0.3% SLS in HFA134a, 4.0 hr (n = 4), read-out: Concentrations of Drug, Blood): 200 ± 40 ng/mL
- concentration at 6 h (rat, blood, inhaled or intranasal, SLS MDI 10 mg/mL drug, 0.3% SLS in HFA134a, 6.0 hr (n = 2), read-out: Concentrations of Drug, Blood): 280 ± 270 ng/mL
- concentration at 0.25 h (rat, lung, inhaled or intranasal, SLS MDI 10 mg/mL drug, 0.3% SLS in HFA134a, 0.25 hr, read-out: Concentrations of Drug, Lung): 14500 ± 6330 ng/g
- concentration at 0.5 h (rat, lung, inhaled or intranasal, SLS MDI 10 mg/mL drug, 0.3% SLS in HFA134a, 0.5 hr, read-out: Concentrations of Drug, Lung): 12100 ± 4720 ng/g
- concentration at 1 h (rat, lung, inhaled or intranasal, SLS MDI 10 mg/mL drug, 0.3% SLS in HFA134a, 1.0 hr, read-out: Concentrations of Drug, Lung): 13100 ± 15700 ng/g
- concentration at 2 h (rat, lung, inhaled or intranasal, SLS MDI 10 mg/mL drug, 0.3% SLS in HFA134a, 2.0 hr, read-out: Concentrations of Drug, Lung): 16600 ± 13000 ng/g
- concentration at 4 h (rat, lung, inhaled or intranasal, SLS MDI 10 mg/mL drug, 0.3% SLS in HFA134a, 4.0 hr, read-out: Concentrations of Drug, Lung): 8540 ± 3100 ng/g
- concentration at 6 h (rat, lung, inhaled or intranasal, SLS MDI 10 mg/mL drug, 0.3% SLS in HFA134a, 6.0 hr, read-out: Concentrations of Drug, Lung): 9850 ± 2910 ng/g
- Concentrations of Drug, Lung (SLS MDI 10 mg/mL drug, 0.3% SLS in HFA134a, 0 hr): 66.74 µg/g
SMILES: C[C@H](C#Cc1ccc(Oc2ccc(F)cc2)o1)N(O)C(N)=O [R(+)-N-[3-[5-(4-fluorophenoxy)-2-furanyl]-1-methyl-2-propynyl]-N-hydroxyurea]

From patent US5676931A, “Aerosol drug formulations for use with non CFC propellants” (Abbott Laboratories, priority 1996, dated 1997)
